Test results: patent US20230348394A1, “COMPOSITIONS AND METHODS FOR TREATING MUSCULAR DYSTROPHIES” (The Regents of the University of California, priority 2020, published 2023)

Experiments:
SSPN mRNA = assay: SSPN gene expression in wild-type C2C12 myotubes; assay type: cell-based, mouse
Protocol: C2C12 cells (American Type Culture Collection) were grown at 37° C. with 5% CO2 in growth medium containing DMEM (Gibco) with 20% FBS (Sigma-Aldrich). Upon reaching 90-100% confluency, myoblasts were induced to differentiate by replacing the medium with differentiation medium consisting of DMEM with 2% horse serum (Sigma-Aldrich). Conditionally immortalized H2K WT and mdx myoblasts with a nonsense mutation in exon 23 of dystrophin were a gift from Terrance Partridge, Ph.D. (Children's National Medical Center, Washington, D.C.). See, Morgan et al., Dev Biol. 1994; 162(2):486-98 Myoblasts were allowed to proliferate on 0.01% gelatin (Sigma-Aldrich) coated plates at 33° C. with 5% CO2 with growth medium containing DMEM, 20% HI-FBS (Invitrogen), 2% L-glutamine (Sigma-Aldrich), 2% chicken embryo extract (Accurate Chemical), 1% penicillin-streptomycin (Sigma-Aldrich), and 20 U/ml of fresh interferon gamma (Gibco). […]
RNA from myotubes treated for 48 hrs was extracted from cells using Trizol-based (Thermo Fisher Scientific) phase separation, Chomczynski et al., Biotechniques. […] RNA concentrations were determined using a NanoDrop 1000 (Thermo Fisher Scientific) and 750 ng of RNA in a 20 Id reaction was reverse transcribed using iScript cDNA synthesis (Bio-Rad) with the following cycling conditions: 25° C. for 5 mins, 42° C. for 30 mins, 85° C. for 5 mins. For mouse qPCR, SsoFast EvaGreen Supermix (Bio-Rad), 400 nM of each optimized forward and reverse primer (SSPN F: 5′ […] 3′, SSPN R: 5′ […] 3′, BACT F: 5′ […] 3′, BACT R: 5′ […] 3′), and cDNA corresponding to 37.5 ng RNA were used to amplify cDNA measured by QuantStudio 5 Real-Time PCR System (Thermo Fisher Scientific) with the following reaction conditions: 55° C. for 2 mins, 95° C. for 2 mins, 40 cycles of 95° C. for 10 seconds and 62° C. for 30 seconds, and dissociation stage. […] Data was analyzed using the ddCT method and normalized to reference gene ACTB with vehicle-treated samples serving as the calibrator (relative expression of vehicle control=1). […]

SSPN protein = assay: Sarcospan immunoblot of H2K mdx myotubes; assay type: cell-based, murine; details: 2.5 to 10 μM, 48 hours
Protocol: Myotubes treated for 48 hrs were lysed using RIPA buffer (Thermo Fisher Scientific) containing Halt Protease Inhibitor Cocktail (Thermo Fisher Scientific). Cell lysates in RIPA buffer were rocked for 1 hr at 4° C. and centrifuged at 1,000 RPM for 30 mins at 4° C. The supernatant was collected, quantified for protein concentration using the DC protein assay (Bio-Rad), and normalized to 2 mg/ml in water and Laemmli sample buffer with a final concentration of 10% glycerol (Sigma-Aldrich), 5% beta-mercaptoethanol (Sigma-Aldrich), 3% sodium dodecyl sulfate (Sigma-Aldrich), and 0.05% bromophenol blue (Sigma-Aldrich). […] Autoradiography films were developed using a SRX-101A tabletop processor (Konica Minolta), scanned to a digital file, and analyzed by densitometry of bands using ImageJ version 1.51 s. […]
After excluding compounds that were unstable in solution or that produced highly variable results, nine compounds remained. […] To determine if the increase in SSPN mRNA was also evident at the protein level, we treated mdx myotubes with 2.5 to 10 μM of OT-9, PC1-36, and PC1-42 and analyzed total protein lysates by immunoblotting with SSPN antibodies.

`CCN(CC)c1ccc2cc(C(=O)Nc3ccc(C(=O)N4CCCCCC4)cc3)c(=O)oc2c1` [OT-9] was tested, and the “SSPN mRNA levels after compound removal” value (SSPN mRNA; 5 μM for 4 hours, 4, 24 and 48 hours after compound removal) was “returned to baseline levels”, the “SSPN mRNA levels over the vehicle control” value (SSPN mRNA; 5 μM for 4 hours, immediately after compound removal (0h)) was 1.5 fold and the “SSPN mRNA levels” value (SSPN mRNA; 5 μM, 48 hours) was “increased SSPN mRNA levels”. For the same compound, the “increase of SSPN protein levels” value (SSPN protein) was 1.5 fold.
